Data: US20230082430A1 (C4 Therapeutics, Inc., priority 2019, published 2023)
pIC50: −log10 of the molar value.

Test system: NCIH929.1 cells
Experiment: Cell viability assay for Table 2 (CellTiter-Glo 2.0, ATP quantification, 96 hr)
Assay type: cell-based
Settings: 96 h, NCIH929.1 cell viability, 96 hr, top concentration 1 μM, 14 points half log titration; read-out: IC50
Source text: Cell Viability Assay for Table 2
CellTiter-Glo® 2.0 Assay was purchased from Promega (Madison, Wis., USA). NCIH929.1 cell line was purchased from ATCC (Manassas, Va., USA). Cell culture flasks and 384-well microplates were acquired from VWR (Radnor, Pa., USA).

SMILES | pIC50
CC1(C)C(N2CCC(n3cc(Cc4ccc5c6c(cccc46)C(=O)N5C4CCC(=O)NC4=O)cn3)CC2)C1(C)C (stereo not drawn) [Compound 240, 3-(2-oxo-6-((1-(1-(2,2,3,3-tetramethylcyclopropyl)piperidin-4-yl)-1H-pyrazol-4-yl)methyl)benzo[cd]indol-1(2H)-yl)piperidine-2,6-dione] | > 9.00
CC(C)(C)OC(=O)N1CCC(C)(n2cc(C(=O)c3ccc4c5c(cccc35)C(=O)N4C3CCC(=O)NC3=O)cn2)CC1 (stereo not drawn) [Compound 241, 4-{4-[1-(2,6-Dioxo-piperidin-3-yl)-2-oxo-1,2-dihydro-benzo[cd]indole-6-carbonyl]-pyrazol-1-yl}-4-methyl-piperidine-1-carboxylic acid tert-butyl ester] | > 7.00
O=C1CCC(N2C(=O)c3cccc4c(Cc5cnn(C6CCN([C@H]7CCC8(CCC8)C7)CC6)c5)ccc2c34)C(=O)N1 (stereo partly drawn) [Compound 242] | > 9.00
O=C1CCC(N2C(=O)c3cccc4c(Cc5cnn(C6CCN([C@@H]7CCC8(CCC8)C7)CC6)c5)ccc2c34)C(=O)N1 (stereo partly drawn) [Compound 243] | > 9.00
CC1(C(=O)N2CCN(c3cnn(Cc4ccc5c6c(cccc46)C(=O)N5C4CCC(=O)NC4=O)c3)CC2)CCC1 (stereo not drawn) [Compound 246, 3-(6-((4-(4-(1-methylcyclobutane-1-carbonyl)piperazin-1-yl)-1H-pyrazol-1-yl)methyl)-2-oxobenzo[cd]indol-1(2H)-yl)piperidine-2,6-dione] | > 9.00
COC(c1cnn(C2CCN(C(=O)C3(C)CCC3)CC2)c1)c1ccc2c3c(cccc13)C(=O)N2C1CCC(=O)NC1=O (stereo not drawn) [Compound 247, 3-[6-[methoxy-[1-[1-(1-methylcyclobutanecarbonyl)-4-piperidyl]pyrazol-4-yl]methyl]-2-oxo-benzo[cd]indol-1-yl]piperidine-2,6-dione] | > 9.00
CC(C)(C)OC(=O)N1CCC(n2cc(Nc3ccc4c5c(cccc35)C(=O)N4C3CCC(=O)NC3=O)cn2)CC1 (stereo not drawn) [Compound 248, tert-butyl 4-[4-[[1-(2,6-dioxo-3-piperidyl)-2-oxo-benzo[cd]indol-6-yl]amino]pyrazol-1-yl]piperidine-1-carboxylate] | > 7.00
CC1(C(=O)N2CCC(n3cc(Nc4ccc5c6c(cccc46)C(=O)N5C4CCC(=O)NC4=O)cn3)CC2)CCC1 (stereo not drawn) [Compound 249, 3-[6-[[1-[1-(1-methylcyclobutanecarbonyl)-4-piperidyl]pyrazol-4-yl]amino]-2-oxo-benzo[cd]indol-1-yl]piperidine-2,6-dione] | > 7.00
CC(C)(C)OC(=O)N1CCC(n2cc(Nc3ccc4c5c(cccc35)C(=O)N4C3CCC(=O)NC3=O)c(Cl)n2)CC1 (stereo not drawn) [Compound 250, tert-butyl 4-[3-chloro-4-[[1-(2,6-dioxo-3-piperidyl)-2-oxo-benzo[cd]indol-6-yl]amino]pyrazol-1-yl]piperidine-1-carboxylate] | > 7.00
CC1(C(=O)N2CCC(n3cc(Nc4ccc5c6c(cccc46)C(=O)N5C4CCC(=O)NC4=O)c(Cl)n3)CC2)CCC1 (stereo not drawn) [Compound 251, 3-[6-[[3-chloro-1-[1-(1-methylcyclobutanecarbonyl)-4-piperidyl]pyrazol-4-yl]amino]-2-oxo-benzo[cd]indol-1-yl]piperidine-2,6-dione] | > 7.00
CN(c1cnn(C2CCN(C(=O)OC(C)(C)C)CC2)c1)c1ccc2c3c(cccc13)C(=O)N2C1CCC(=O)NC1=O (stereo not drawn) [Compound 252, tert-butyl 4-[4-[[1-(2,6-dioxo-3-piperidyl)-2-oxo-benzo[cd]indol-6-yl]-methyl-amino]pyrazol-1-yl]piperidine-1-carboxylate] | > 7.00
CC1(C(=O)N2CCC(n3cc(Cc4ccc5c6c(cccc46)C(=O)N5C4CCC(=O)NC4=O)c4cccnc43)CC2)CCC1 (stereo not drawn) [Compound 253, 3-[6-[[1-[1-(1-methylcyclobutanecarbonyl)-4-piperidyl]pyrrolo[2,3-b]pyridin-3-yl]methyl]-2-oxo-benzo[cd]indol-1-yl]piperidine-2,6-dione] | > 9.00
O=C1CCC(N2C(=O)c3cccc4c(Cc5ccc(CN6CCC(Oc7ccc(F)cc7)CC6)cc5)ccc2c34)C(=O)N1 (stereo not drawn) [Compound 258, 3-(6-(4-((4-(4-fluorophenoxy)piperidin-1-yl)methyl)benzyl)-2-oxobenzo[cd]indol-1(2H)-yl)piperidine-2,6-dione] | > 9.00
CC(C)(C)C[C@H]1CC[C@@H](n2cc(Cc3ccc4c5c(cccc35)C(=O)N4C3CCC(=O)NC3=O)cn2)CC1 (stereo partly drawn) [Compound 259, 3-(6-((1-((1r,4r)-4-neopentylcyclohexyl)-1H-pyrazol-4-yl)methyl)-2-oxobenzo[cd]indol-1(2H)-yl)piperidine-2,6-dione] | > 9.00
CC(C)(C)C[C@H]1CC[C@H](n2cc(Cc3ccc4c5c(cccc35)C(=O)N4C3CCC(=O)NC3=O)cn2)CC1 (stereo partly drawn) [Compound 260, 3-(6-((1-((1s,4s)-4-neopentylcyclohexyl)-1H-pyrazol-4-yl)methyl)-2-oxobenzo[cd]indol-1(2H)-yl)piperidine-2,6-dione] | > 9.00
CN(C(=O)N1CCC(n2cc(Cc3ccc4c5c(cccc35)C(=O)N4C3CCC(=O)NC3=O)cn2)CC1)C1CC1 (stereo not drawn) [Compound 261, N-cyclopropyl-4-(4-((1-(2,6-dioxopiperidin-3-yl)-2-oxo-1,2-dihydrobenzo[cd]indol-6-yl)methyl)-1H-pyrazol-1-yl)-N-methylpiperidine-1-carboxamide] | > 9.00
N#Cc1ccc(N2CCN(C3(c4ccc(Cc5ccc6c7c(cccc57)C(=O)N6C5CCC(=O)NC5=O)cc4)CC3)CC2)c(F)c1 (stereo not drawn) [Compound 262, 4-[4-(1-{4-[1-(2,6-Dioxo-piperidin-3-yl)-2-oxo-1,2-dihydro-benzo[cd]indol-6-ylmethyl]-phenyl}-cyclopropyl)-piperazin-1-yl]-3-fluoro-benzonitrile] | > 9.00
CC1(C(=O)N2CCN(C3(c4ccc(Cc5ccc6c7c(cccc57)C(=O)N6C5CCC(=O)NC5=O)cc4)CC3)CC2)CCC1 (stereo not drawn) [Compound 263, 3-[6-(4-{1-[4-(1-Methyl-cyclobutanecarbonyl)-piperazin-1-yl]-cyclopropyl}-benzyl)-2-oxo-2H-benzo[cd]indol-1-yl]-piperidine-2,6-dione] | > 9.00
O=C1CCC(N2C(=O)c3cccc4c(Cc5ccc(C6(N7CCN(c8ccccc8F)CC7)CC6)cc5)ccc2c34)C(=O)N1 (stereo not drawn) [Compound 264, 3-[6-(4-{1-[4-(2-Fluoro-phenyl)-piperazin-1-yl]-cyclopropyl}-benzyl)-2-oxo-2H-benzo[cd]indol-1-yl]-piperidine-2,6-dione] | > 9.00
CN1CC2CC(C(=O)N3CCC(n4cc(Cc5ccc6c7c(cccc57)C(=O)N6C5CCC(=O)NC5=O)cn4)CC3)(C2)C1 (stereo not drawn) [Compound 265, 3-(6-((1-(1-(3-methyl-3-azabicyclo[3.1.1]heptane-1-carbonyl)piperidin-4-yl)-1H-pyrazol-4-yl)methyl)-2-oxobenzo[cd]indol-1(2H)-yl)piperidine-2,6-dione] | > 9.00
CC(C)(C)OC(=O)N1CCC(n2cc(C(O)c3ccc4c5c(cccc35)C(=O)N4C3CCC(=O)NC3=O)cn2)CC1 (stereo not drawn) [Compound 266, tert-butyl 4-[4-[[1-(2,6-dioxo-3-piperidyl)-2-oxo-benzo[cd]indol-6-yl]-hydroxy-methyl]pyrazol-1-yl]piperidine-1-carboxylate] | > 9.00
O=C1CCC(N2C(=O)c3cccc4c(Cc5ccc(CN6CCC7(CCCO7)CC6)cc5)ncc2c34)C(=O)N1 (stereo not drawn) [Compound 267, 3-[24-[[4-(1-oxa-8-azaspiro[4.5]decan-8-ylmethyl)phenyl]methyl]-28-oxo-31,34-diazatricyclododeca-,2(22),7(23),21(25),24(31)-pentaen-34-yl]piperidine-2,6-dione] | > 9.00
O=C1CCC(N2C(=O)c3cccc4c(Cc5ccc(CN6CCOCC6)nc5)ccc2c34)C(=O)N1 (stereo not drawn) [Compound 269, 3-[6-[[6-(morpholinomethyl)-3-pyridyl]methyl]-2-oxo-benzo[cd]indol-1-yl]piperidine-2,6-dione] | > 9.00
CC1(C(=O)N2CCC(c3cnn(Cc4ccc5c6c(cccc46)C(=O)N5C4CCC(=O)NC4=O)c3)CC2)CCC1 (stereo not drawn) [Compound 270, 3-[6-[[4-[1-(1-methylcyclobutanecarbonyl)-4-piperidyl]pyrazol-1-yl]methyl]-2-oxo-benzo[cd]indol-1-yl]piperidine-2,6-dione] | > 9.00
CC1(C(=O)N2CCC(C)(n3cc(Cc4ccc5c6c(cccc46)C(=O)N5C4CCC(=O)NC4=O)cn3)CC2)CCN(c2ccccn2)CC1 (stereo not drawn) [Compound 271, 3-(6-((1-(4-methyl-1-(4-methyl-1-(pyridin-2-yl)piperidine-4-carbonyl)piperidin-4-yl)-1H-pyrazol-4-yl)methyl)-2-oxobenzo[cd]indol-1(2H)-yl)piperidine-2,6-dione] | > 9.00
CC1(n2cc(Cc3ccc4c5c(cccc35)C(=O)N4C3CCC(=O)NC3=O)cn2)CCN(C(=O)C2CCN(c3ccccn3)CC2)CC1 (stereo not drawn) [Compound 272, 3-[6-[[1-[4-methyl-1-[1-(2-pyridyl)piperidine-4-carbonyl]-4-piperidyl]pyrazol-4-yl]methyl]-2-oxo-benzo[cd]indol-1-yl]piperidine-2,6-dione] | > 9.00
O=C1CCC(N2C(=O)c3cccc4c(Oc5ccc(CN6CCOCC6)cc5)ccc2c34)C(=O)N1 (stereo not drawn) [Compound 273, 3-(6-(4-(morpholinomethyl)phenoxy)-2-oxobenzo[cd]indol-1(2H)-yl)piperidine-2,6-dione] | > 7.00
CC1(CN2CCC(n3cc(Cc4ccc5c6c(cccc46)C(=O)N5C4CCC(=O)NC4=O)cn3)CC23CC3)CCC1 (stereo not drawn) [Compound 275, 3-[6-[[1-[4-[(1-methylcyclobutyl)methyl]-4-azaspiro[2.5]octan-7-yl]pyrazol-4-yl]methyl]-2-oxo-benzo[cd]indol-1-yl]piperidine-2,6-dione] | > 9.00
CC(C)(C)OC(=O)N1CCC(c2ccc3c4c(cccc24)C(=O)N3C2CCC(=O)NC2=O)CC1 (stereo not drawn) [Compound 276, tert-butyl 4-[1-(2,6-dioxo-3-piperidyl)-2-oxo-benzo[cd]indol-6-yl]piperidine-1-carboxylate] | < 6.00
O=C1CCC(N2C(=O)c3cccc4c(Cc5ccccc5)ccc2c34)C(=O)N1 (stereo not drawn) [Compound 277, 3-(6-benzyl-2-oxo-benzo[cd]indol-1-yl)piperidine-2,6-dione] | > 9.00
